How the values were obtained:
Assay type in all cases: in vivo
[1] = tested on: Digitaria sanguinalis; test: Comparison experiment (post-emergence) against racemate / S configuration; conditions: Digitaria sanguinalis (3.5 leaf), 16DAA
[2] = tested on: Leptochloa chinensis; test: as above; conditions: Leptochloa chinensis (4.5 leaf), 16DAA
Source text: (§1) The above growth control rates are fresh weight control rates.
(§2) Experiment on weeding effect in post-emergence stage: monocotyledonous and dicotyledonous weed seeds (Descurainia sophia, Capsella bursa-pastoris, Galium aparine, Stellaria media, Lithospermum arvense, Rorippa indica, Alopecurus aequalis, Beckmannia syzigachne, Sclerochloa dura, Phleum paniculatum, Bromus japonicus, Aegilops tauschii, Phalaris arundinacea, Amaranthus retroflexus, Chenopodiaceae, Commelina communis, Sonchus arvensis, convolvulus arvensis, Cirsium setosum, Solanum nigrum, Acalypha australis, Digitaria sanguinalis, Echinochloa crusgalli, Setaria viridis, Setaria glauca, Leptochloa chinensis, Monochoria vaginalis, Sagittaria trifolia, Scirpus juncoides, Cyperus rotundus, Cyperus iria, Cyperus difformis, Fimbristylis, Portulaca oleracea, Xanthium sibiricum, Pharbitis nil) and major crop seeds (wheat, corn, rice, soybean, cotton, oilseed rape, millet, sorghum, potato, sesame, ricinus) were placed in plastic pots filled with soil, then covered with 0.5-2 cm of soil, allowed to grow in a good greenhouse environment. […] The tested compounds of the present invention were respectively dissolved in acetone, then added with Tween 80 and 1.5 liter/ha of emulsifiable concentrate of methyl oleate as synergist, diluted with a certain amount of water to obtain a solution with a certain concentration, and sprayed with a spray tower onto the plants. […]
(§3) If there is no clear marker, the post-seedling test conditions are the same as above, and the experimental results are shown in Tables 4-7.

[3] = tested on: Abutilon theophrasti; test: as above; conditions: Abutilon theophrasti (3.5 leaf), 16DAA
Source text: as §1, §2, §3

[4] = tested on: Green Setaria viridis; test: as above; conditions: for Results of comparison experiment (16DAA), weed control: Setaria viridis (4 leaf)
Source text: as §1, §2, §3

[5] = tested on: Corn-Zhengdan 958; test: Comparison experiment (post-emergence, Table 7), crop safety on corn; conditions: Corn-Zhengdan 958 (3.5 leaf)
Source text: as §3

[6] = tested on: Alopecurus japonicas; test: Comparison experiment (post-emergence) against racemate / S configuration; conditions: Table 6, post-seedling test conditions
Source text: as §1
(§4) Experiment on weeding effect in post-emergence stage: monocotyledonous and dicotyledonous weed seeds (Descurainia sophia, Capsella bursa-pastoris, Galium aparine, Stellaria media, Lithospermum arvense, Rorippa indica, Alopecurus aequalis, Beckmannia syzigachne, Sclerochloa dura, Phleum paniculatum, Bromus japonicus, Aegilops tauschii, Phalaris arundinacea, Amaranthus retroflexus, Chenopodiaceae, Commelina communis, Sonchus arvensis, convolvulus arvensis, Cirsium setosum, Solanum nigrum, Acalypha australis, Digitaria sanguinalis, Echinochloa crusgalli, Setaria viridis, Setaria glauca, Leptochloa chinensis, Monochoria vaginalis, Sagittaria trifolia, Scirpus juncoides, Cyperus rotundus, Cyperus iria, Cyperus difformis, Fimbristylis, Portulaca oleracea, Xanthium sibiricum, Pharbitis nil) and major crop seeds (wheat, corn, rice, soybean, cotton, oilseed rape, millet, sorghum, potato, sesame, ricinus) were placed in plastic pots filled with soil, then covered with 0.5-2 cm of soil, allowed to grow in a good greenhouse environment. After 2 weeks of sowing, the test plants were treated in the 2 leaf stage. The tested compounds of the present invention were respectively dissolved in acetone, then added with Tween 80 and 1.5 liter/ha of emulsifiable concentrate of methyl oleate as synergist, diluted with a certain amount of water to obtain a solution with a certain concentration, and sprayed with a spray tower onto the plants. After the application, the plants were cultured for 15 days in the greenhouse, and then the experimental results of the weeding were counted. The doses of the used compounds were 500, 250, 125, 60, 30, 15 g/ha, and the averages were obtained by repeating for three times.
as §3

[7] = tested on: Digitaria sanguinalis; test: as above; conditions: Digitaria sanguinalis, post-emergence, Table 6, post-seedling test conditions
Source text: as §1, §4, §3

[8] = tested on: Descurainia sophia; test: Comparison experiment (post-emergence, Table 7); conditions: Descurainia sophia (12 leaf)
Source text: as §3

[9] = tested on: Sinapis arvensis; test: Comparison experiment (post-emergence, Table 7); conditions: Sinapis arvensis (3.5 leaf)
Source text: as §3

[10] = tested on: Amaranthus retroflexus; test: Comparison experiment (post-emergence, Table 7); conditions: Amaranthus retroflexus (6 leaf)
Source text: as §3

[11] = tested on: Galium aparine; test: Comparison experiment (post-emergence, Table 7); conditions: Galium aparine (5 branches)
Source text: as §3

[12] = tested on: Malachium aquaticum; test: Comparison experiment (post-emergence, Table 7); conditions: Malachium aquaticum (2 branches)
Source text: as §3

[13] = tested on: Capsella bursa-pastoris; test: Comparison experiment (post-emergence, Table 7); conditions: Capsella bursa-pastoris (10-11 leaf)
Source text: as §3

[14] = tested on: Veronica didyma; test: Comparison experiment (post-emergence, Table 7); conditions: Veronica didyma (2 branches)
Source text: as §3

[15] = tested on: Echinochloa crusgali; test: Comparison experiment (post-emergence, Table 7); conditions: Echinochloa crusgali (3 leaf)
Source text: as §3

Compound: CC[S@@+]([O-])c1c(C(F)(F)F)ccc(C(=O)Nc2nnc(C)o2)c1SC [Compound 548]
- Results of comparison experiment (16DAA), weed control ([1]; 3 g/ha): 40%
- Results of comparison experiment (16DAA), weed control ([1]; 6 g/ha): 40%
- Results of comparison experiment (16DAA), weed control ([1]; 12 g/ha): 60%
- Results of comparison experiment (16DAA), weed control ([1]; 24 g/ha): 80%
- Results of comparison experiment (16DAA), weed control ([1]; 48 g/ha): 100%
- Results of comparison experiment (16DAA), weed control ([2]; 3 g/ha): 0%
- Results of comparison experiment (16DAA), weed control ([2]; 6 g/ha): 20%
- Results of comparison experiment (16DAA), weed control ([2]; 12 g/ha): 50%
- Results of comparison experiment (16DAA), weed control ([2]; 24 g/ha): 70%
- Results of comparison experiment (16DAA), weed control ([2]; 48 g/ha): 80%
- Results of comparison experiment (16DAA), weed control ([3]; 3 g/ha): 30%
- Results of comparison experiment (16DAA), weed control ([3]; 6 g/ha): 40%
- Results of comparison experiment (16DAA), weed control ([3]; 12 g/ha): 50%
- Results of comparison experiment (16DAA), weed control ([3]; 24 g/ha): 70%
- Results of comparison experiment (16DAA), weed control ([3]; 48 g/ha): 100%
- Results of comparison experiment, Green Setaria viridis (30 g/ha) ([4]; 30 g/ha, Table 6, post-seedling test conditions): 100%
- Results of comparison experiment (16DAA), weed control ([4]; 3 g/ha): 20%
- Results of comparison experiment (16DAA), weed control ([4]; 6 g/ha): 40%
- Results of comparison experiment (16DAA), weed control ([4]; 12 g/ha): 80%
- Results of comparison experiment (16DAA), weed control ([4]; 24 g/ha): 100%
- Results of comparison experiment (16DAA), weed control ([4]; 48 g/ha): 100%
- Results of comparison experiment (16DAA), crop damage ([5]; 3 g/ha): 0%
- Results of comparison experiment (16DAA), crop damage ([5]; 6 g/ha): 0%
- Results of comparison experiment (16DAA), crop damage ([5]; 12 g/ha): 0%
- Results of comparison experiment (16DAA), crop damage ([5]; 24 g/ha): 0%
- Results of comparison experiment (16DAA), crop damage ([5]; 48 g/ha): 0%
- Results of comparison experiment, Alopecurus japonicas (120 g/ha) [6]: 50%
- pest or weed control at 30 g/ha [7]: 100%
- Results of comparison experiment (16DAA), weed control ([8]; 3 g/ha): 50%
- Results of comparison experiment (16DAA), weed control ([8]; 6 g/ha): 70%
- Results of comparison experiment (16DAA), weed control ([8]; 12 g/ha): 80%
- Results of comparison experiment (16DAA), weed control ([8]; 24 g/ha): 100%
- Results of comparison experiment (16DAA), weed control ([8]; 48 g/ha): 100%
- Results of comparison experiment (16DAA), weed control ([9]; 3 g/ha): 30%
- Results of comparison experiment (16DAA), weed control ([9]; 6 g/ha): 40%
- Results of comparison experiment (16DAA), weed control ([9]; 12 g/ha): 50%
- Results of comparison experiment (16DAA), weed control ([9]; 24 g/ha): 60%
- Results of comparison experiment (16DAA), weed control ([9]; 48 g/ha): 80%
- Results of comparison experiment (16DAA), weed control ([10]; 3 g/ha): 30%
- Results of comparison experiment (16DAA), weed control ([10]; 6 g/ha): 40%
- Results of comparison experiment (16DAA), weed control ([10]; 12 g/ha): 60%
- Results of comparison experiment (16DAA), weed control ([10]; 24 g/ha): 80%
- Results of comparison experiment (16DAA), weed control ([10]; 48 g/ha): 100%
- Results of comparison experiment (16DAA), weed control ([11]; 3 g/ha): 10%
- Results of comparison experiment (16DAA), weed control ([11]; 6 g/ha): 10%
- Results of comparison experiment (16DAA), weed control ([11]; 12 g/ha): 20%
- Results of comparison experiment (16DAA), weed control ([11]; 24 g/ha): 20%
- Results of comparison experiment (16DAA), weed control ([11]; 48 g/ha): 30%
- Results of comparison experiment (16DAA), weed control ([12]; 3 g/ha): 30%
- Results of comparison experiment (16DAA), weed control ([12]; 6 g/ha): 50%
- Results of comparison experiment (16DAA), weed control ([12]; 12 g/ha): 70%
- Results of comparison experiment (16DAA), weed control ([12]; 24 g/ha): 100%
- Results of comparison experiment (16DAA), weed control ([12]; 48 g/ha): 100%
- Results of comparison experiment (16DAA), weed control ([13]; 3 g/ha): 10%
- Results of comparison experiment (16DAA), weed control ([13]; 6 g/ha): 30%
- Results of comparison experiment (16DAA), weed control ([13]; 12 g/ha): 50%
- Results of comparison experiment (16DAA), weed control ([13]; 24 g/ha): 70%
- Results of comparison experiment (16DAA), weed control ([13]; 48 g/ha): 100%
- Results of comparison experiment (16DAA), weed control ([14]; 3 g/ha): 10%
- Results of comparison experiment (16DAA), weed control ([14]; 6 g/ha): 20%
- Results of comparison experiment (16DAA), weed control ([14]; 12 g/ha): 20%
- Results of comparison experiment (16DAA), weed control ([14]; 24 g/ha): 50%
- Results of comparison experiment (16DAA), weed control ([14]; 48 g/ha): 70%
- Results of comparison experiment (16DAA), weed control ([15]; 3 g/ha): 50%
- Results of comparison experiment (16DAA), weed control ([15]; 6 g/ha): 50%
- Results of comparison experiment (16DAA), weed control ([15]; 12 g/ha): 70%
- Results of comparison experiment (16DAA), weed control ([15]; 24 g/ha): 80%
- Results of comparison experiment (16DAA), weed control ([15]; 48 g/ha): 100%
